Assay results taken from US10632210B2, “Peptidomimetic compounds and antibody-drug conjugates thereof” (Genentech, Inc., priority 2013, dated 2020).

melting point: 98 °C (dec.)
SMILES: COc1cc2c(cc1OCCCCCC(=O)N1C[C@@H](CCl)c3c1cc(OP(=O)(O)O)c1ccccc31)N(C(=O)OCc1ccc(NC(=O)[C@H](CCCCN)NC(=O)C3(C(=O)NCCCCCN4C(=O)C=CC4=O)CCC3)cc1)C(O)[C@@H]1CCCN1C2=O (stereo partly shown)
